Assay results as given in ChEMBL document CHEMBL4732080, “Polypharmacological drug actions of recently FDA approved antibiotics” (Eur J Med Chem, 2021).
Values after ≈ are worked out from the molar mass of the structure shown.

Columns and labels:
[1] = molecular target: Albumin (Homo sapiens, UniProt P02768); assay: Protein binding to human serum albumin; type: ADME, cell-free; conditions: read-out: PB (converted)
[2] = Terminal half life in human; type: ADME; conditions: read-out: beta t1/2 (converted)
[3] = Terminal half life in human at 10 mg/kg, administered as single dose measured over 2 hrs; type: ADME, organism-based; conditions: in vivo, read-out: beta t1/2 (converted)
[4] = tested on: Staphylococcus aureus; assay: Antibacterial activity against methicillin-resistant Staphylococcus aureus; type: functional

Chain of Albumin (P02768 whole entry): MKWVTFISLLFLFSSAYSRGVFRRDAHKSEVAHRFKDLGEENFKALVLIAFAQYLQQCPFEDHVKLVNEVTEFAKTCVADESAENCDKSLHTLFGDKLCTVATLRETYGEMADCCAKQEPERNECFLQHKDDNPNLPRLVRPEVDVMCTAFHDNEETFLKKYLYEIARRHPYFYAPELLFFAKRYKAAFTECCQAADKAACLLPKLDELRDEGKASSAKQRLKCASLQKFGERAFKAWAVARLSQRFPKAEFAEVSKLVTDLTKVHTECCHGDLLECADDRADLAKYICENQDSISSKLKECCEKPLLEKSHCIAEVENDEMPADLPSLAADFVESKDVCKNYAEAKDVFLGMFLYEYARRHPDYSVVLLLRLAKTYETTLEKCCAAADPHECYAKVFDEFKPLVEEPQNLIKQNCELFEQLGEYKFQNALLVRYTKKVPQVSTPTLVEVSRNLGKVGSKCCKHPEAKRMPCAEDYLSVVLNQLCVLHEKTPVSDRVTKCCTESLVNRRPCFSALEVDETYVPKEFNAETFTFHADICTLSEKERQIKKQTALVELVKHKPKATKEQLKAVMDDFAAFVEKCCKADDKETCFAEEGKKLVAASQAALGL

CN[C@H](CC(C)C)C(=O)N[C@H]1C(=O)N[C@@H](CC(N)=O)C(=O)N[C@H]2C(=O)N[C@H]3C(=O)N[C@H](C(=O)N[C@H](C(=O)O)c4cc(O)cc(O)c4-c4cc3ccc4O)[C@H](O[C@H]3C[C@](C)(N)[C@@H](O)[C@H](C)O3)c3ccc(c(Cl)c3)Oc3cc2cc(c3O[C@@H]2O[C@H](CO)[C@@H](O)[C@H](O)[C@H]2O[C@H]2C[C@](C)(NCc3ccc(-c4ccc(Cl)cc4)cc3)[C@@H](O)[C@H](C)O2)Oc2ccc(cc2Cl)[C@H]1O [ORITAVANCIN]
fraction unbound [1]: 0.1 | half-life [2]: 195 h

CCCCCCCCCCNCCN[C@@]1(C)C[C@H](O[C@H]2[C@H](Oc3c4cc5cc3Oc3ccc(cc3Cl)[C@@H](O)[C@@H](NC(=O)[C@@H](CC(C)C)NC)C(=O)N[C@@H](CC(N)=O)C(=O)N[C@H]5C(=O)N[C@H]3C(=O)N[C@H](C(=O)N[C@H](C(=O)O)c5cc(O)c(CNCP(=O)(O)O)c(O)c5-c5cc3ccc5O)[C@H](O)c3ccc(c(Cl)c3)O4)O[C@H](CO)[C@@H](O)[C@@H]2O)O[C@@H](C)[C@H]1O [TELAVANCIN]
half-life [3]: 7.5 h | fraction unbound [1]: 0.07

CN[C@H](CC(C)C)C(=O)N[C@H]1C(=O)N[C@@H](CC(N)=O)C(=O)N[C@H]2C(=O)N[C@H]3C(=O)N[C@H](C(=O)N[C@H](C(=O)O)c4cc(O)cc(O)c4-c4cc3ccc4O)[C@H](O)c3ccc(c(Cl)c3)Oc3cc2cc(c3O[C@@H]2O[C@H](CO)[C@@H](O)[C@H](O)[C@H]2O[C@H]2C[C@](C)(N)[C@H](O)[C@H](C)O2)Oc2ccc(cc2Cl)[C@H]1O [VANCOMYCIN]
MIC50 [4]: 1 µg/mL (≈ 0.69 µM) | fraction unbound [1]: 0.9 | half-life [2]: 6 h
